Here are results for one molecule from patent publication US20060258639A1, “Therapeutic combinations for the treatment or prevention of psychotic disorders” (Wyeth, priority 2005, published 2006).

SMILES strings stand for the structures.

The ED50 is the dose that gives a 50% effect, or the effect in half of the subjects.

What all share (assay type): in vivo
The test system of series [1] is catalepsy induced by haloperidol. Put plainly: catalepsy (bar test), extra-pyramidal side effect liability, Compound 1 with haloperidol. As to conditions: Compound 1 3 mg/kg with haloperidol 0.1 & 0.17 mg/kg; 30, 60, 90 and 120 minutes after dosing; mice. On the procedure: Using (7-(2,6-dichlorophenyl)-5-fluoro-2,3-dihydrobenzofuran-2-yl)methanamine (Compound 1) as an example, the present Example describes an experiment in which a compound of formula I was administered in combination with haloperidol to assess extra-pyramidal side effect liability, as represented by cataleptic behavior. [table] Mice were dosed with either the vehicle or a dose of haloperidol followed by a dose of either vehicle or a dose of Compound 1. Thirty, 60, 90 and 120 minutes after dosing, the forelegs are draped over a thin horizontal rod 1.75″ high. The number of seconds up to 60 sec for which the mouse remains on the bar is recorded at each test point and presented as the percent of maximum possible response (60 sec).

The test system of series [2] is apomorphine-induced climbing. Nature of the series: apomorphine-induced climbing in mice, Compound 1 alone or with clozapine (Experiment 2). As to conditions: for ED50: Mus musculus, sc, apomorphine 1 mg/kg s.c., read-out: ED50 for apomorphine block. The procedure:
(§1) Using (7-(2,6-dichlorophenyl)-5-fluoro-2,3-dihydrobenzofuran-2-yl)methanamine (Compound 1) as an example, the present Example describes two experiments in which a compound of formula I, was administered in combination with either a typical (exemplified by haloperidol) or atypical (exemplified by clozapine). The combination reduced apomorphine-induced climbing without side effects.
(§2) Mice were acclimated to the climbing cages for at least 1 hour and then dosed with either the vehicle or a dose of haloperidol or clozapine followed by a dose of either vehicle or a dose of Compound 1. Thirty minutes after dosing all mice received 1 mg/kg s.c. apomorphine and returned to the climbing cages. Five minutes after apomorphine the mice were observed and scored for climbing and stereotypy every 5 minutes for the 30 minute test session.

Series [3] deals with apomorphine-induced climbing. Nature of the series: apomorphine-induced climbing in mice, Compound 1 alone or with haloperidol (Experiment 1). The following applies: for ED50: Mus musculus, sc, apomorphine 1 mg/kg s.c., read-out: ED50 for apomorphine block. On the procedure: as §1, §2
Setting [4] is: Compound 1 0.3, 1 & 3 mg/kg co-administered with clozapine 3 & 5.4 mg/kg.

Take `NCC1Cc2cc(F)cc(-c3c(Cl)cccc3Cl)c2O1` (centres unmarked) [Compound 1, (7-(2,6-dichlorophenyl)-5-fluoro-2,3-dihydrobenzofuran-2-yl)methanamine]: the “catalepsy, percent of maximum possible response (60 sec)” value in series [1] was “up to 45 % of maximum catalepsy”. For the same molecule, the “block of apomorphine induced climbing versus either compound alone” value in series [2] (setting [4]) is “greater block of apomorphine induced climbing”; in series [3] (Compound 1 0.3, 1 & 3 mg/kg co-administered with haloperidol 0.17 mg/kg), “greater block of apomorphine induced climbing”. The effect on stereotypy result in series [2] (setting [4]) is given as “no effect on stereotypy”; in series [3] (Compound 1 0.3, 1 & 3 mg/kg co-administered with haloperidol 0.17 mg/kg, relative to haloperidol alone), “no effect on stereotypy”. Besides, the 50% effective dose (ED50) in series [2] (Experiment 2, Compound 1 alone) was found to be 7.15 mg/kg; in series [2] (Experiment 2, co-administered with 3 mg/kg of clozapine), 2.48 mg/kg; in series [2] (Experiment 2, co-administered with 5.4 mg/kg of clozapine), 1.67 mg/kg; in series [3] (Experiment 1, Compound 1 alone), 1.81 mg/kg; in series [3] (Experiment 1, co-administered with 0.1 mg/kg of haloperidol) it was 1.49 mg/kg; in series [3] (Experiment 1, co-administered with 0.17 mg/kg of haloperidol), 0.534 mg/kg.
